Blank lines part the entries; values can stand above or below the compound they belong to. Calls of active or inactive are those of the source. No cut-off for these calls is given here. Where a SMILES comes first, the peptide text is derived from it.
Experiments:
Rattus norvegicus [1] = assay: Anti-colitis activity in Sprague-Dawley rat model of DSS-induced colitis assessed as reduction in disease activity index at 100 mg/kg, po qd for 9 days; format: functional, organism-based
Interleukin-23 receptor [2] = target: T1, Interleukin-23 receptor (Homo sapiens, UniProt Q5VWK5); assay: Inhibition of interleukin-23 binding to human interleukin-23 receptor incubated for 2 hrs by competitive binding ELISA
T1 sequence (Q5VWK5 whole entry): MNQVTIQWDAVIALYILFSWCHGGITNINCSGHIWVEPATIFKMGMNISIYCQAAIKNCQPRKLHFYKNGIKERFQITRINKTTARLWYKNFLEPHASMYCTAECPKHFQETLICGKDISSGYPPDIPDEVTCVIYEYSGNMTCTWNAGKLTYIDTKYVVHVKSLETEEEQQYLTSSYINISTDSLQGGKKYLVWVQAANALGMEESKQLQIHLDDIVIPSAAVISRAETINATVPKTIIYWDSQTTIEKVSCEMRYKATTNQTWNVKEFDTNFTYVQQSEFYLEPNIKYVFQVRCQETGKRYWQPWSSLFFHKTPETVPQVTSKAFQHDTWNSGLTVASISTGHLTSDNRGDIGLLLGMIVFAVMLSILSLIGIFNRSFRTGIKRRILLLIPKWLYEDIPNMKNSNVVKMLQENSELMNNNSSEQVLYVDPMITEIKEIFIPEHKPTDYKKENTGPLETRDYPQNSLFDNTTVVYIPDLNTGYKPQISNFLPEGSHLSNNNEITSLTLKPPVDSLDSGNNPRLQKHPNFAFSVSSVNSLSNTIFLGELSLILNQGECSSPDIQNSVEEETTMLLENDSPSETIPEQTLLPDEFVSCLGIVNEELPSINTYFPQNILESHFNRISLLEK

Interleukin-23 receptor [3] = target: T2, Interleukin-23 receptor (Mus musculus, UniProt Q8K4B4); assay: Inhibition of interleukin-23 binding to mouse interleukin-23 receptor incubated for 2 hrs by competitive binding ELISA
T2 sequence (Q8K4B4 whole entry): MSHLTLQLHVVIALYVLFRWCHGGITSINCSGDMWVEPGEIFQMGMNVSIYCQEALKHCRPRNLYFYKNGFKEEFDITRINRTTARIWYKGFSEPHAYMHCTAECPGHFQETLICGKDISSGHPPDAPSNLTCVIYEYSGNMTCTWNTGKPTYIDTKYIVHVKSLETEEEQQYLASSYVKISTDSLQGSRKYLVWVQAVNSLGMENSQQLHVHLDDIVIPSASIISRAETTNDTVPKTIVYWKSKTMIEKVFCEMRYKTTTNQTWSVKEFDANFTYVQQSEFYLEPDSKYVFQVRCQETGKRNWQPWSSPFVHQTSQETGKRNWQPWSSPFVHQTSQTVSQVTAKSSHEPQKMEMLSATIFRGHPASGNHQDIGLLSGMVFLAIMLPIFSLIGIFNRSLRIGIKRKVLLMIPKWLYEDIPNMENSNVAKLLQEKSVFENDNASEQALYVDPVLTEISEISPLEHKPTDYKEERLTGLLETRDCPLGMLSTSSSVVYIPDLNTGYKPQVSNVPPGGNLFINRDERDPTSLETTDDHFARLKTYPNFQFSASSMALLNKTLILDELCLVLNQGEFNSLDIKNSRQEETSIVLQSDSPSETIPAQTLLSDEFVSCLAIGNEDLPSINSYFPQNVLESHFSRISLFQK

[4] = Inhibition of interleukin-23 binding to rat interleukin-23 receptor incubated for 2 hrs by competitive binding ELISA
[5] = AUC in rat small intestinal mucosa at 20 mg/kg, po; format: ADME, organism-based, Mucosa of small intestine; settings: in vivo
Interleukin-23 receptor [6] = target: T1, Interleukin-23 receptor; assay: Binding affinity to human FC-tagged human interleukin-23 receptor assessed as dissociation rate constant by SPR assay
[7] = Binding affinity to human FC-tagged human recombinant interleukin-12 receptor beta1/human FC-tagged human interleukin-23 receptor by SPR assay
[8] = AUC in rat plasma at 20 mg/kg, po; format: ADME, organism-based
[9] = Half life in human intestinal fluid at 20 uM by LC-MS/MS analysis; format: ADME
PBMC = assay: Inhibition of IL12-stimulated IFNgamma production in PHA-activated human PBMC by ELISA; format: functional, cell-based
[10] = Inhibition of interleukin-23 binding to cynomolgus monkey interleukin-23 receptor incubated for 2 hrs by competitive binding ELISA; design: species or system Macaca fascicularis
Rattus norvegicus [11] = assay: Anti-colitis activity in Sprague-Dawley rat model of TNBS-induced colitis assessed as improvement in histological scores at 160 mg/kg/day, po starting 24 hrs before TNBS injection by H and E staining based histological assay; format: functional, organism-based
[12] = target: T3, Interleukin-23 receptor (Homo sapiens) (UniProt Q5VWK5); assay: Binding affinity to human FC-tagged human interleukin-23 receptor assessed as association constant by SPR assay
T3 sequence (whole entry): T1 sequence (Q5VWK5 whole entry)

Homo sapiens = organism: Homo sapiens; assay: Binding affinity to human FC-tagged human recombinant interleukin-12 receptor beta1/human FC-tagged human interleukin-23 receptor assessed as association constant by SPR assay
[13] = target: T4, Interleukin-12 receptor subunit beta-1 (Homo sapiens, UniProt P42701); assay: Binding affinity to human FC-tagged human recombinant interleukin-12 receptor beta1 up to […] by SPR assay
[14] = Inhibition of interleukin-6 binding to human interleukin-6 receptor incubated for 2 hrs by competitive binding ELISA
Rattus norvegicus [15] = assay: Anti-colitis activity in Sprague-Dawley rat model of TNBS-induced colitis assessed as reduction in mucosal necrosis at 160 mg/kg/day, po starting 24 hrs before TNBS injection; format: functional, organism-based
[16] = Binding affinity to human FC-tagged human recombinant interleukin-12 receptor beta1/human FC-tagged human interleukin-23 receptor assessed as dissociation rate constant by SPR assay
Rattus norvegicus [17] = assay: Anti-colitis activity in Sprague-Dawley rat model of TNBS-induced colitis assessed as reduction in inflammation at 160 mg/kg/day, po starting 24 hrs before TNBS injection; format: functional, organism-based
[18] = Drug recovery in rat feces at 20 mg/kg, po; format: ADME, organism-based; settings: read-out: Drug recovery
Interleukin-23 receptor [19] = target: T1, Interleukin-23 receptor; assay: Binding affinity to human recombinant interleukin-23 receptor by SPR assay
Rattus norvegicus [20] = assay: Anti-colitis activity in Sprague-Dawley rat model of TNBS-induced colitis assessed as reduction in colon weight/colon length ratio at 20 mg/kg, po dosed 3 times per day for 8 days starting 24 hrs before TNBS injection; format: functional, organism-based
Interleukin-23 receptor [21] = target: T1, Interleukin-23 receptor; assay: Inhibition of interleukin-23 receptor in human natural killer cells assessed as reduction in IL23/IL18-induced IFNgamma production incubated for 20 to 24 hrs by ELISA; format: cell-based
Rattus norvegicus [22] = assay: Anti-colitis activity in Sprague-Dawley rat model of TNBS-induced colitis assessed as reduction in inflammation at 20 mg/kg, po dosed 3 times per day for 8 days starting 24 hrs before TNBS injection; format: functional, organism-based
Rattus norvegicus [23] = assay: Anti-colitis activity in Sprague-Dawley rat model of TNBS-induced colitis assessed as reduction in localized lesions in mucosa and sub-mucosal regions at 20 mg/kg, po dosed 3 times per day for 8 days starting 24 hrs before TNBS injection by H and E staining based histological assay; format: functional, organism-based
[24] = Ratio of IC50 for inhibition of interleukin-23 binding to rat interleukin-23 receptor incubated for 2 hrs by competitive binding ELISA to plasma concentration in Sprague-Dawley rat model of TNBS-induced colitis
Rattus norvegicus [25] = assay: Anti-colitis activity in Sprague-Dawley rat model of TNBS-induced colitis assessed as induction of healing at necrosis sites in colon at 20 mg/kg, po dosed 3 times per day for 8 days starting 24 hrs before TNBS injection by H and E staining based histological assay; format: functional, organism-based
[26] = Inhibition of interleukin-23 receptor in rat splenocytes assessed as reduction in IL23-stimulated IL-17A production incubated for 3 hrs by ELISA; format: cell-based
[27] = Half life in simulated intestinal fluid at 20 uM by LC-MS/MS analysis; format: ADME
Interleukin-23 receptor [28] = target: T1, Interleukin-23 receptor; assay: Inhibition of interleukin-23 receptor in human DB cells assessed as reduction in IL-23-stimulated STAT3 phosphorylation incubated for 30 mins by HTRF assay; format: cell-based
Interleukin-23 receptor [29] = target: T1, Interleukin-23 receptor; assay: Binding affinity to human FC-tagged human interleukin-23 receptor by SPR assay
Rattus norvegicus [30] = assay: Anti-colitis activity in Sprague-Dawley rat model of TNBS-induced colitis assessed as reduction in colon wall thickness at 160 mg/kg/day, po starting 24 hrs before TNBS injection; format: functional, organism-based
[31] = Half life in DTT at 50 uM up up to 120 mins by reverse phase HPLC and UV detection based assay; format: physicochemical
[32] = AUC in rat colon mucosa at 20 mg/kg, po; format: ADME, organism-based, Colonic mucosa; settings: in vivo
Rattus norvegicus [33] = assay: Anti-colitis activity in Sprague-Dawley rat model of TNBS-induced colitis assessed as improvement in gross pathology scores at 20 mg/kg, po dosed 3 times per day for 8 days starting 24 hrs before TNBS injection; format: functional, organism-based
[34] = Ratio of IC50 for inhibition of interleukin-23 receptor in rat splenocytes assessed as reduction in IL23-stimulated IL-17A production incubated for 3 hrs by ELISA to plasma concentration in Sprague-Dawley rat model of TNBS-induced colitis
[35] = target: T4, Interleukin-12 receptor subunit beta-1; assay: Binding affinity to human recombinant interleukin-12 receptor beta1 by SPR assay
[36] = Half life in simulated gastric fluid at 20 uM by LC-MS/MS analysis; format: ADME

Compound: O=C(O)c1cc(/N=N/c2ccc(S(=O)(=O)Nc3ccccn3)cc2)ccc1O
Activity (Rattus norvegicus [1]): Active

IC50 (Interleukin-23 receptor [2]): 251 to 1000 nM
IC50 (Interleukin-23 receptor [3]): > 25000 nM
IC50 [4]: 251 to 1000 nM
Compound: N=C(N)NCCC[C@H](NC(=O)[C@@H](N)CS)C(=O)N[C@@H](CC(=O)O)C(=O)N[C@@H](Cc1c[nH]c2ccccc12)C(=O)N[C@@H](CCC(N)=O)C(=O)N[C@@H](CS)C(=O)N[C@@H](Cc1ccc(O)cc1)C(=O)N[C@@H](Cc1c[nH]c2ccccc12)C(=O)N[C@@H](Cc1cnc[nH]1)C(=O)N[C@@H](CCCCN)C(=O)N[C@@H](Cc1ccccc1)C(=O)NCC(N)=O (H-CRDWQCYWHKFG-NH2)

AUC [5]: 355 µg·h/g
Kd (Interleukin-23 receptor [6]): 0.033 s⁻¹
Kd [7]: 2.56 nM
AUC [8]: 300 ng·h/mL
half-life at 20 µM [9]: > 24 h
IC50 [10]: 7 nM
Ka [12]: 1.37 ×10⁷ /M/s
Ka (Homo sapiens): 1.59 ×10⁷ /M/s
Activity [13]: inactive
IC50 [14]: > 100000 nM
Kd [16]: 0.041 s⁻¹
dose excreted [18]: 40%
Kd (Interleukin-23 receptor [19]): 2.4 nM
IC50 (Interleukin-23 receptor [2]): 10 to 25 nM
IC50 [4]: 10 to 25 nM
IC50 [26]: 130 nM
half-life at 20 µM [27]: 6 to 24 h
IC50 (Interleukin-23 receptor [28]): < 10 nM
Kd (Interleukin-23 receptor [29]): 2.42 nM
half-life at 50 µM [31]: > 2 h
AUC [32]: 77 µg·h/g
Kd [35]: Not Active
half-life at 20 µM [36]: 2 to 24 h
Compound: CC(=O)N[C@H]1CCSC[C@@H](C(=O)N[C@@H](Cc2ccc(OCCN)cc2)C(=O)N[C@@H](Cc2c[nH]c3ccccc23)C(=O)N[C@@](C)(CCCCN)C(=O)N[C@@H](CCC(=O)O)C(=O)N[C@@H](CC(N)=O)C(=O)NCC(N)=O)NC(=O)[C@H](CCC(N)=O)NC(=O)[C@H](Cc2c[nH]c3ccccc23)NC(=O)[C@H]([C@@H](C)O)NC(=O)[C@H](CCC(N)=O)NC1=O
IC50 (PBMC): > 100000 nM
Activity (Rattus norvegicus [11]): Active
Activity (Rattus norvegicus [15]): Active
Activity (Rattus norvegicus [17]): Active
Activity (Rattus norvegicus [20]): Active
IC50 (Interleukin-23 receptor [21]): 25 to 27 nM
Activity (Rattus norvegicus [22]): Active
Activity (Rattus norvegicus [23]): Active
Ratio [24]: <2
Activity (Rattus norvegicus [25]): Active
Activity (Rattus norvegicus [30]): Active
Activity (Rattus norvegicus [33]): Active
Ratio [34]: <2

Source: ChEMBL document CHEMBL4417631, “Oral peptide inhibitors of interleukin-23 receptor and their use to treat inflammatory bowel diseases” (2017)
